Test results: ChEMBL document CHEMBL2424542, “3-Carboxy-pyrazolinalanine as a new scaffold for developing potent and selective NMDA receptor antagonists” (Eur J Med Chem, 2013)
pIC50, pKi: −log10 of the molar value.

Assays:
Type in all cases: cell membranes, Membrane
[1] = Displacement of [3H]KAIN from kainate receptor in rat cortical membranes
[2] = Displacement of [3H]AMPA from AMPA receptor in rat cortical membranes
Glutamate NMDA receptor = experiment: Displacement of [3H]CGP39653 from NMDA receptor in rat cortical membranes

| SMILES | pIC50 [1] | pIC50 [2] | pKi (Glutamate NMDA receptor) |
| --- | --- | --- | --- |
| N[C@H](C[C@H]1CC(C(=O)O)=NN1)C(=O)O (racemic) | < 4.00 | < 4.00 | 6.77 |
| N[C@H](C[C@H]1CC(C(=O)O)=NN1Cc1ccccc1)C(=O)O (racemic) | < 4.00 | < 4.00 | 5.85 |
| N[C@H](C[C@@H]1CC(C(=O)O)=NN1Cc1ccccc1)C(=O)O (racemic) | < 4.00 | < 4.00 | 5.00 |
| N[C@H](C[C@@H]1CC(C(=O)O)=NO1)C(=O)O (racemic) | < 4.00 | < 4.00 |  |

Further lines, results first:

| pIC50 [1] | pIC50 [2] | pKi (Glutamate NMDA receptor) | SMILES |
| --- | --- | --- | --- |
| < 4.00 | < 4.00 |  | N[C@H](C[C@H]1CC(C(=O)O)=NO1)C(=O)O (racemic) |
| < 4.00 | < 4.00 | 7.59 | N[C@H](C[C@H]1CC(C(=O)O)=NN1c1ccccc1)C(=O)O (racemic) |
| < 4.00 | < 4.00 | 6.70 | N[C@H](C[C@@H]1CC(C(=O)O)=NN1c1ccccc1)C(=O)O (racemic) |
| < 4.00 | < 4.00 | 5.77 | N[C@H](C[C@@H]1CC(C(=O)O)=NN1)C(=O)O (racemic) |
